Results published in PubChem BioAssay (NCI).
Several values for one entry are separate records, joined by “and”; a condition that tells them apart may be missing. Equal values may be shown once.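 Each compound was tested at five concentrations against cells in 96-well plates for 48 hours. GI50: concentration for 50% inhibition of growth. TGI marks complete inhibition of growth.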

System: MDA-MB-468 breast
Test: DTP human tumour cell line panel, 48 h

O=C(/C=C/c1ccc([N+](=O)[O-])o1)NNC(=O)c1cc2ccccc2cc1O
GI50: 0.721 µM
TGI: 3.59 µM

CCCCc1cc(O)ccc1O
GI50: 14 µM
TGI: 31.7 µM

Cn1cnc([N+](=O)[O-])c1Sc1ncnc2nc[nH]c12
GI50: 2.1 µM and 3.37 µM
TGI: 70.3 µM and > 100 µM

CCC(=O)N1C/C(=C/c2ccc(OC)cc2)C(=O)/C(=C/c2ccc(OC)cc2)C1
GI50: 1.85 µM
TGI: 4.92 µM

O=Nc1c2cccnc2n2nnc3ccc(Cl)cc3c12
GI50: 0.136 µM
TGI: 0.701 µM

CCN(CC)CC(C)Nc1ccc(C)c2sc3ccccc3c(=O)c12 (stereo not given)
GI50: 2.57 µM
TGI: 7.57 µM

COc1ccc(-c2cn3ccnc3c(-c3ccc4ncn(C5CCCCC5)c4c3)n2)cc1
GI50: 0.863 µM
TGI: > 100 µM

COC(=O)c1ccc2c(c1)c1c(C)c3cnccc3c(C)c1n2C
GI50: 0.225 µM
TGI: 0.677 µM

O=C1NC(=O)C(c2ccccc2Cl)=C1Nc1cccc(O)c1
GI50: 0.706 µM
TGI: 7.16 µM

CCN(CC)C(=S)SSC1CCCCC1
GI50: 19.4 µM
TGI: 49.4 µM

O=C(Nc1ccc(Br)cc1)c1cc(Br)cc(Br)c1O
GI50: 2.32 µM
TGI: 5.66 µM

CCOC(=O)/C=C/c1ccc(C(=O)OCC)[nH]1
GI50: 2.53 µM
TGI: 8.16 µM

C=C(CNCCO)[C@@H]1CC[C@]2(CO)CC[C@]3(C)[C@H](CC[C@@H]4[C@@]5(C)CCC(NCCc6ccc(O)cc6)C(C)(C)[C@@H]5CC[C@]43C)[C@@H]12 (stereo not given in full)
GI50: 0.782 µM
TGI: 2.34 µM

CN(C)CCNc1cccc2sc3ccc(O)cc3c(=O)c12
GI50: 1.96 µM
TGI: 4.56 µM

CC1(C)C(=O)/C(=C\c2ccco2)C[C@]2(C)[C@H]3CC=C4[C@@H]5C[C@](C)(C(=O)O)CC[C@]5(C)CC[C@@]4(C)[C@]3(C)CC[C@@H]12
GI50: 10.7 µM
TGI: 26.5 µM

C=C1C(=O)O[C@H]2[C@H]1CC/C(COC(=O)c1ccc(C(=O)O)s1)=C\CC[C@@]1(C)O[C@@H]21
GI50: 1.22 µM
TGI: 3.09 µM

CC(=O)Oc1ccc2c(c1)CC[C@@H]1C2[C@@H](O[N+](=O)[O-])C[C@@]2(C)C1CC[C@@H]2O (stereo not given in full)
GI50: 22.5 µM
TGI: 89.2 µM

O=C(N/N=C/c1ccc(F)cc1)c1[nH]c2ccc(I)cc2c1-c1ccccc1
GI50: 0.345 µM
TGI: 13.9 µM

CCc1ccc(C2=C(O)C(=O)C(c3ccc(CC)cc3)=C(O)C2=O)cc1
GI50: 1.86 µM
TGI: 6.26 µM

CS(=O)(=O)Nc1cc(-c2ccc3ncc(C#N)c(NCc4ccccc4F)c3c2)cnc1Cl
GI50: 0.0781 µM
TGI: 1.08 µM

Cc1ccc2c(c1)sc(-c1ccc(N(C)C)cc1)[n+]2C
GI50: 0.302 µM
TGI: 5.74 µM

ClCCn1cnc2c(SCc3ccccc3)ncnc21
GI50: 11.1 µM
TGI: > 100 µM

Cc1ccc(S(=O)(=O)NCCN2c3nc4ccccc4cc3Sc3cc4ccccc4nc32)cc1
GI50: 13.1 µM
TGI: > 100 µM

COc1cccc2c(=O)c3c(sc12)c(NCCCN)nc1ccccc13
GI50: 1.63 µM
TGI: 3.2 µM

O=[N+]([O-])/C=C\c1ccc2c(c1)OCO2
GI50: 2.17 µM
TGI: 5.82 µM
